Results taken from patent US20050203029A1, “Agents for treating <I>flaviviridae</I>infections” (priority 2002, published 2005).
Peptide text beside a SMILES is read from it. * marks the point of attachment. Cbz = O=C(OCc1ccccc1)*

What was measured:
[1] = system: West Nile virus; assay: West Nile virus infection of BHK-21 cells (end point titration, RNase protection, immunofluorescence); type: cell-based, West Nile flavivirus; settings: 10 nM PI after infection, 12 hours
[2] = system: BVDV CP7; assay: BVDV CP7 infection of MDBK cells (end point titration, RNase protection, immunofluorescence); type: cell-based, bovine viral diarrhea virus; settings: 10 nM PI after infection, 30 hours
[3] = system: BVDV; assay: Electron microscopy (TEM) of BVDV-infected MDBK cells and virus supernatants; type: cell-based, bovine viral diarrhea virus
[4] = system: BVDV (CP7, NADL); assay: Western blot of pelleted BVDV virions with anti-BVDV core antibodies; type: cell-based, bovine viral diarrhea virus; settings: for production of BVDV virions (pelleted virions): 24 or 48 hours of treatment; for core signal, mature and immature form of the BVDV core protein / quantity of BVDV virus as measured by the core signal: 48 hours of treatment; for quantity of BVDV virus as measured by the core signal: 150 μM

## CC(C)C[C@@H](C=O)NC(=O)[C@H](CC(C)C)NC(=O)[C@H](CC(C)C)NC(=O)OCc1ccccc1 [MG132, N-carbobenzoxy-L-leucinyl-L-leucinyl-L-leucinal] (Cbz-Leu-Leu-Leu-aldehyde)
[1]
  reduction in the number of progeny viruses released: several log steps
[2]
  reduction in the number of progeny viruses released: several log steps
[3]; 10 μm MG132, 30 hours
  number of virus particles detected in cellular vesicles vs mock: significantly smaller number of virus particles
  ratio of completely assembled to incompletely assembled virions: shifted significantly in favor of incompletely assembled virus particles
[3]; supernatants of PI-treated vs mock-treated cells
  morphology of secreted viruses vs wild-type viruses: changed markedly
[4]
  production of BVDV virions (pelleted virions): block the production of BVDV virions
  core signal, mature and immature form of the BVDV core protein: dose-dependent decrease
  quantity of BVDV virus as measured by the core signal: 10%

## CC(=O)N[C@@H](CSC(=O)[C@]1([C@@H](O)C(C)C)NC(=O)[C@H](C)[C@@H]1O)C(=O)O [lactacystin]
[1]
  reduction in the number of progeny viruses released: slight
  reduction in the rate of RNA replication (factor): slight
[2]
  reduction in the number of progeny viruses released: slight
  reduction in the rate of RNA replication (factor): slight
[4]
  production of BVDV virions (pelleted virions): block the production of BVDV virions
  core signal, mature and immature form of the BVDV core protein: dose-dependent decrease
  quantity of BVDV virus as measured by the core signal: 10%
